≈ marks a conversion by molar mass, not a printed value.
Tests used:
[1] = maximum solubility of taurolidine in HFP (preliminary testing); format: physicochemical; details: organic solvent or mixture; solvent 1,1,1,3,3,3-hexafluoro-2-propanol (HFP)
Experimental: All of the polymers and the taurolidine were dissolved in 1,1,1,3,3,3-hexafluoro-2-propanol (HFP; Oakwood Chemical) for processing into small diameter (SD) and large diameter (LD) fibers. […] Thus, for preliminary testing, the taurolidine concentration in the electrospinning solutions was maintained at approximately 100 mg/ml.

Microbes = details: microbes killed and toxins inactivated; cited from earlier work

In the case of `O=S1(=O)CCN(CN2CCS(=O)(=O)NC2)CN1` [taurolidine, bis(1,1-dioxoperhydro-1,2,4-thiadiazinyl-4)-methane], the solubility [1] is given as about 218 mg/mL (≈ 767 mM) and the “destruction time in vitro” value (Microbes) is given as 30 min.
